From US10344000B2, “Substituted bicyclic pyrazole compounds as RORgammaT inhibitors and uses thereof” (Merck Sharp & Dohme Corp., priority 2015, dated 2019) come the findings set out here.

pIC50: −log10 of the molar value.

The target of one assay is human RORgammaT-Ligand Binding Domain (LBD) (Homo sapiens (Human), UniProt P51449). Briefly: RORγ-Ligand Binding Domain TR-FRET Assay (SRC1_2 co-activator peptide). Particulars: Fret IC50 (nM), HIS-tagged RORγ-LBD 3 nM, biotinylated SRC1 LXXLL peptide 100 nM, incubated overnight at 4° C. The class given is biochemical. (In general: TR-FRET usually uses a lanthanide donor and a delayed reading to cut background.)
Sequence of human RORgammaT-Ligand Binding Domain (LBD) (P51449 269-508): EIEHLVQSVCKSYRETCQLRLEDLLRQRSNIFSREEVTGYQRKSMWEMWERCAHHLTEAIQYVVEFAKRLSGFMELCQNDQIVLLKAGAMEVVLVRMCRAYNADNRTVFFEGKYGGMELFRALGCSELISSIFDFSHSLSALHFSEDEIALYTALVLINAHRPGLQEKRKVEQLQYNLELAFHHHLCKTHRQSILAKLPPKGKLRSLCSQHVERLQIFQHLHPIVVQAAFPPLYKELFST
In general, IC50 refers to the concentration needed to halve the response being measured. Read a high IC50 as weaker potency. As for `N#CC1(c2cccc(Cl)c2C(=O)n2nc(C3=CCC(C(=O)O)CC3)c3c2COCC3)CCC1` (single isomer, unassigned) [Example 2C-A, (1R or S)-4-(1-{[2-chloro-6-(1-cyanocyclobutyl)phenyl]carbonyl}-1,4,5,7-tetrahydropyrano[3,4-c]pyrazol-3-yl)cyclohex-3-ene-1-carboxylic acid], the IC50 turned out to be 676 nM.

As to `N#CC1(c2cccc(Cl)c2C(=O)n2nc(C3=CCC(C(=O)O)CC3)c3c2COCC3)CCC1` (single isomer, unassigned) [Example 2C-B, (1R or S)-4-(1-{[2-chloro-6-(1-cyanocyclobutyl)phenyl]carbonyl}-1,4,5,7-tetrahydropyrano[3,4-c]pyrazol-3-yl)cyclohex-3-ene-1-carboxylic acid], the half-inhibitory concentration (IC50) worked out at 1050 nM.

The same assay, now with this note: HIS-tagged RORγ-LBD 3 nM, biotinylated SRC1 LXXLL peptide 100 nM, incubated overnight at 4° C.; read-out: Fret IC50.
The term pIC50 denotes the IC50 on a negative log10 scale, so that one unit is a factor of ten. Consider `CC1(c2cccc(Cl)c2C(=O)n2nc(C3=CCC(C(=O)O)CC3)c3c2COCC3)CC1` (centres unmarked) [Example 1D, 4-(1-{[2-chloro-6-(1-methylcyclopropyl)phenyl]carbonyl}-1,4,5,7-tetrahydropyrano[3,4-c]pyrazol-3-yl)cyclohex-3-ene-1-carboxylic acid], for which the negative-log IC50 (pIC50) is 7.42.

As for `O=C(O)C1CC=C(c2nn(C(=O)c3c(C4CC4)ccc(F)c3Cl)c3c2CCC(CO)C3)CC1` (single isomer, unassigned) [Example 7B, 4-((R or S)-1-(2-chloro-6-cyclopropyl-3-fluorobenzoyl)-6-(hydroxymethyl)-4,5,6,7-tetrahydro-1H-indazol-3-yl)cyclohex-3-ene-1-carboxylic acid], the pIC50 is 7.85.

`O=C(O)C1CCN(c2nn(C(=O)c3c(Cl)cccc3C3CC3)c3c2CCCC3)CC1` [Example 16A, 1-(1-(2-chloro-6-cyclopropylbenzoyl)-4,5,6,7-tetrahydro-1H-indazol-3-yl)piperidine-4-carboxylic Acid]: the negative-log IC50 (pIC50) was 6.83.

Regarding `O=C(O)C1CC=C(c2nn(C(=O)c3c(Cl)cccc3C3CC3)c3c2CCC(O)C3)CC1` (single isomer, unassigned) [Example 10B, 4-((R or S)-1-(2-chloro-6-cyclopropylbenzoyl)-6-hydroxy-4,5,6,7-tetrahydro-1H-indazol-3-yl)cyclohex-3-ene-1-carboxylic Acid], the pIC50 is 7.49.

With `O=C(O)C1CC=C(c2nn(C(=O)c3c(Cl)cccc3C3CC3)c3c2CCC(CO)C3)CC1` (single isomer, unassigned) [Example 7A, 4-((R or S)-1-(2-chloro-6-cyclopropylbenzoyl)-6-(hydroxymethyl)-4,5,6,7-tetrahydro-1H-indazol-3-yl)cyclohex-3-ene-1-carboxylic Acid], the pIC50 was 8.05.

As for `O=C(O)C1CC=C(c2nn(C(=O)c3c(Cl)cccc3C3CC3)c3c2OCCC3)CC1` (centres unmarked) [Example 15A, 4-(1-(2-chloro-6-cyclopropylbenzoyl)-1,5,6,7-tetrahydropyrano[3,2-c]pyrazol-3-yl)cyclohex-3-ene-1-carboxylic Acid], the negative logarithm of the IC50 (pIC50) was 7.25.

With `N#CC1(c2cccc(Cl)c2C(=O)n2nc(C3=CCC(C(=O)O)CC3)c3c2CCC3)CCC1` (centres unmarked) [Example 1F, 4-(1-{[2-chloro-6-(1-cyanocyclobutyl)phenyl]carbonyl}-1,4,5,6-tetrahydrocyclopenta[c]pyrazol-3-yl)cyclohex-3-ene-1-carboxylic acid], the pIC50 was 5.93.

Consider `O=C(O)C1CC=C(c2nn(C(=O)c3c(Cl)cccc3C3CC3)c3c2CCC(O)C3)CC1` (single isomer, unassigned) [Example 10A, 4-((R or S)-1-(2-chloro-6-cyclopropylbenzoyl)-6-hydroxy-4,5,6,7-tetrahydro-1H-indazol-3-yl)cyclohex-3-ene-1-carboxylic Acid], for which the negative logarithm of the IC50 (pIC50) was 7.24.

As for `O=C(O)C1CC=C(c2nn(C(=O)c3c(Cl)cccc3C3COC3)c3c2CCC(CO)C3)CC1` (single isomer, unassigned) [Example 7C, 4-((R or S)-1-(2-chloro-6-(oxetan-3-yl)benzoyl)-6-(hydroxymethyl)-4,5,6,7-tetrahydro-1H-indazol-3-yl)cyclohex-3-ene-1-carboxylic acid], the pIC50 is 7.82.

Take `O=C(O)C1CC=C(c2nn(C(=O)c3c(Cl)cccc3C3(C(F)(F)F)CC3)c3c2CCC(CO)C3)CC1` (single isomer, unassigned) [Example 7D, 4-((R or S)-1-(2-chloro-6-(1-(trifluoromethyl)cyclopropyl)benzoyl)-6-(hydroxymethyl)-4,5,6,7-tetrahydro-1H-indazol-3-yl)cyclohex-3-ene-1-carboxylic acid]: the pIC50 is 8.30.

As for `O=C(O)C1CC=C(c2nn(C(=O)c3c(Cl)cccc3C3CC3)c3c2CCC(CO)C3)CC1` (single isomer, unassigned) [Example 6A, 4-((R or S)-1-(2-chloro-6-cyclopropylbenzoyl)-6-(hydroxymethyl)-4,5,6,7-tetrahydro-1H-indazol-3-yl)cyclohex-3-ene-1-carboxylic Acid], the pIC50 is 6.76.

In the case of `NCC1CCc2c(C3=CCC(C(=O)O)CC3)nn(C(=O)c3c(Cl)cccc3C3CC3)c2C1` (single isomer, unassigned) [Example 14A, 4-((R or S)-6-(aminomethyl)-1-(2-chloro-6-cyclopropylbenzoyl)-4,5,6,7-tetrahydro-1H-indazol-3-yl)cyclohex-3-ene-1-carboxylic Acid], the pIC50 is 5.92.
